Experimental data: publication PMC9589189, “The human odorant receptor OR10A6 is tuned to the pheromone of the commensal fruit fly Drosophila melanogaster” (iScience, 2022)
Positions count from the first letter of the chain named. Read-outs that look alike come from different tables or passages of the source.

How the values were obtained:
Experiment in all cases: GloSensor cAMP luminescence, HEK-293
Format in all cases: cell-based
OR10A6 [1] = target: T1, OR10A6 (Homo sapiens, UniProt Q8NH74)
T1 construct: full coding region from human genomic DNA in pFN210A, N-terminal IL-6-HaloTag; HEK-293 with RTP1S, G-alpha-olf, G-gamma-13, GloSensor-22F
T1 sequence (Q8NH74 1-314): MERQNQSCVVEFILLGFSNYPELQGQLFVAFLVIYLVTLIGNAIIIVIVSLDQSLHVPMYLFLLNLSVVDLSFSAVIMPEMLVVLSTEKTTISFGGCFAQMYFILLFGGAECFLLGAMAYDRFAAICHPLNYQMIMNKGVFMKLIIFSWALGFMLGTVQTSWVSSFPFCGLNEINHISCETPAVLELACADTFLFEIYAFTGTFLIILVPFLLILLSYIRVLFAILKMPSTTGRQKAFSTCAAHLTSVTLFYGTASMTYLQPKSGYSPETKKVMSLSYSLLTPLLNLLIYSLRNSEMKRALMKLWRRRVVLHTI
Excerpt: (§1) GloSensor cAMP luminescence, HEK-293 on OR10A6

OR10A6 [2] = target: T2, OR10A6 (Homo sapiens, UniProt Q8NH74, A117V/L287P/V140G)
T2 construct: full coding region from human genomic DNA in pFN210A, N-terminal IL-6-HaloTag; HEK-293 with RTP1S, G-alpha-olf, G-gamma-13, GloSensor-22F
T2 sequence (Q8NH74 1-314 A117V/V140G/L287P): T1 sequence (Q8NH74 1-314) with A117V, V140G, L287P
Excerpt: as §1

OR10A6 [3] = target: T3, OR10A6 (Homo sapiens, UniProt Q8NH74, L287P)
T3 construct: full coding region from human genomic DNA in pFN210A, N-terminal IL-6-HaloTag; HEK-293 with RTP1S, G-alpha-olf, G-gamma-13, GloSensor-22F
T3 sequence (Q8NH74 1-314 L287P): T1 sequence (Q8NH74 1-314) with L287P
Excerpt: as §1

OR2W1 [4] = target: T4, OR2W1 (Homo sapiens, UniProt Q9Y3N9)
T4 construct: full coding region from human genomic DNA in pFN210A, N-terminal IL-6-HaloTag; HEK-293 with RTP1S, G-alpha-olf, G-gamma-13, GloSensor-22F
T4 sequence (Q9Y3N9 1-320): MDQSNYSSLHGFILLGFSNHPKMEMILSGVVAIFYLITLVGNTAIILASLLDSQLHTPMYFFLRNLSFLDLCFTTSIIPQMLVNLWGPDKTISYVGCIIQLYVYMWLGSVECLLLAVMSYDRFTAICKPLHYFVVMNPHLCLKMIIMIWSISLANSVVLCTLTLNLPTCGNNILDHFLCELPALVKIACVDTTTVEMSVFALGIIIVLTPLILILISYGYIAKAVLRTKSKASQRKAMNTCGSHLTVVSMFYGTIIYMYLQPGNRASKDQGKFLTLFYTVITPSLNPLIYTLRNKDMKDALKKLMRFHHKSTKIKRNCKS
Excerpt: (§2) GloSensor cAMP luminescence, HEK-293 on OR2W1

OR2W1 [5] = target: T5, OR2W1 (Homo sapiens, UniProt Q9Y3N9, D296N)
T5 construct: full coding region from human genomic DNA in pFN210A, N-terminal IL-6-HaloTag; HEK-293 with RTP1S, G-alpha-olf, G-gamma-13, GloSensor-22F
T5 sequence (Q9Y3N9 1-320 D296N): T4 sequence (Q9Y3N9 1-320) with D296N
Excerpt: as §2

OR2W1 [6] = target: T6, OR2W1 (Homo sapiens, UniProt Q9Y3N9, M81V)
T6 construct: full coding region from human genomic DNA in pFN210A, N-terminal IL-6-HaloTag; HEK-293 with RTP1S, G-alpha-olf, G-gamma-13, GloSensor-22F
T6 sequence (Q9Y3N9 1-320 M81V): T4 sequence (Q9Y3N9 1-320) with M81V
Excerpt: as §2

[7] = read-out: Z4-11Al EC50 [μmol/L] ^a

EC50 (OR10A6 [1]) [µM] | EC50 (OR10A6 [2]) [µM] | EC50 (OR10A6 [3]; read-out: Z4-9Al) [µmol/L] | EC50 (OR2W1 [4]; read-out: Z4-9Al) [µmol/L] | EC50 (OR2W1 [5]; read-out: Z4-9Al) [µmol/L] | EC50 (OR2W1 [6]; read-out: Z4-9Al) [µM] | EC50 (OR10A6 [3]; [7]) [µmol/L] | EC50 (OR2W1 [4]; [7]) [µmol/L] | EC50 (OR2W1 [5]; [7]) [µmol/L] | EC50 (OR2W1 [6]; read-out: EC50) [µM] | EC50 (OR10A6 [3]; read-out: Z6-11Al) [µmol/L] | EC50 (OR2W1 [4]; read-out: Z6-11Al) [µmol/L] | EC50 (OR2W1 [5]; read-out: Z6-11Al) [µmol/L] | Compound
> 1000 | > 1000 | 41.1 ± 14.2 | 119 ± 23.1 | 91.8 ± 46.2 | 142 ± 92.4 |  |  |  |  |  |  |  | CCCC/C=C\CCC=O [Z4-9Al, (Z)-4-nonenal]
> 1000 | > 1000 |  |  |  |  | 28.2 ± 12.6 | 65.1 ± 35.8 | 40.4 ± 12 | > 1000 |  |  |  | CCCCCC/C=C\CCC=O [Z4-11Al, (Z)-4-undecenal]
> 1000 | > 1000 |  |  |  |  |  |  |  | > 1000 | 34.8 ± 9.21 | 104 ± 27 | 138 ± 55 | CCCC/C=C\CCCCC=O [Z6-11Al, (Z)-6-undecenal]
